The values that follow come from paper PMC3876054, “Tyrosol and Its Analogues Inhibit Alpha-Melanocyte-Stimulating Hormone Induced Melanogenesis” (International Journal of Molecular Sciences, 2013).

Experiment [1] deals with T1, mushroom tyrosinase (Agaricus bisporus, UniProt C7FF04).
T1 construct: gene PPO3
As to the kind of experiment: spectrophotometric dopachrome assay with L-tyrosine; % inhibition at […]. It counts as biochemical. The following applies: read-out: % inhibition at 4 mM.

In experiment [2] the target is T1, mushroom tyrosinase. The experiment is described as above. The following applies: read-out: % inhibition at 0.4 mM. It counts as biochemical.

T1 sequence (C7FF04 2-392): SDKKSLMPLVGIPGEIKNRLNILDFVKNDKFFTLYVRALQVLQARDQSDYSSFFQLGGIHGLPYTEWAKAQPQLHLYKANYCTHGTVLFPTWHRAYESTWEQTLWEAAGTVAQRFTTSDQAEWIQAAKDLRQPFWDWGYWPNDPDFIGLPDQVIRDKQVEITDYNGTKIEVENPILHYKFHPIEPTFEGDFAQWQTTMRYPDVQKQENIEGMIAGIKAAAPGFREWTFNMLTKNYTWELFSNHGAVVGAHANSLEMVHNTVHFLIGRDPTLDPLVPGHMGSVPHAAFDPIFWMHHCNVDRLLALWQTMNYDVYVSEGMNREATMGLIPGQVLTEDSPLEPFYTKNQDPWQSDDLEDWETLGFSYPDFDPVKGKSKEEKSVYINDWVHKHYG

In the case of `OCCc1ccc(O)cc1` [compound 1, tyrosol], the inhibition at 4000 µM at mushroom tyrosinase [1] was found to be 42.5%. As for `OCCc1cccc(O)c1` [compound 2, 2-(3-hydroxyphenyl)ethanol], the inhibition at 4000 µM at mushroom tyrosinase [1] came to 45.3%. For `Cc1ccc(CCO)cc1` [compound 10, 2-(4-methylphenyl)ethanol], the inhibition at 4000 µM at mushroom tyrosinase [1] is 46.7%. On to `OC[C@H]1O[C@@H](OCCc2ccc(O)cc2)[C@H](O)[C@@H](O)[C@@H]1O` [compound 11, salidroside], for which the inhibition at 400 µM on mushroom tyrosinase [2] amounted to 22.2%.
